Reference: patent US9328099B2, “Cyanomethylpyrazole carboxamides as janus kinase inhibitors” (Merck Sharp & Dohme Corp., priority 2011, dated 2016)

What was measured:
JAK2 = JAK2 (Homo sapiens (Human), UniProt O60674); experiment: Jak Biochemical HTRF Assay, JAK2; details: HTRF biochemical assay, GST-tagged catalytic domain; top concentration tested […]
Source text: (§1) Jak Biochemical HTRF Assay Protocol
(§2) Subsequent reagent additions employed an Agilent Bravo.

JAK1 = JAK1 (Homo sapiens (Human), UniProt P23458); experiment: Jak Biochemical HTRF Assay, JAK1; details: HTRF biochemical assay, GST-tagged catalytic domain; top concentration tested […]; read-out: JAK1 IC50
Source text: as §1, §2

JAK2, sequence (O60674 849-1124): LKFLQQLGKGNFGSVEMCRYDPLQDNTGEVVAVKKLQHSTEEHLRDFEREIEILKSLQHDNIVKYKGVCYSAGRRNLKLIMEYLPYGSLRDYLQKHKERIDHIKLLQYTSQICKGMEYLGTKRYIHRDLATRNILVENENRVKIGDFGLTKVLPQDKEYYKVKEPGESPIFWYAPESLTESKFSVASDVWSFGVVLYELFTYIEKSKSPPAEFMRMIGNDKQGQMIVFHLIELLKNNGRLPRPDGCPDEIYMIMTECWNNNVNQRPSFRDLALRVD
JAK1, sequence (P23458 875-1153): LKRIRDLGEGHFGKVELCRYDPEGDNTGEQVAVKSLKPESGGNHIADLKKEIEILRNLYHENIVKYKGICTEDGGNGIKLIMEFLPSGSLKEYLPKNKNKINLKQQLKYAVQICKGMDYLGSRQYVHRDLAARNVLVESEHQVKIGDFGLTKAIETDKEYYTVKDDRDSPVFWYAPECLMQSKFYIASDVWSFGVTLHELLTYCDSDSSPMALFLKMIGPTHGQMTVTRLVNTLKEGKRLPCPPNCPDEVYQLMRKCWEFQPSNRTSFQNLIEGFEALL

## Cc1ccc(NC(=O)N2CC(CC#N)(n3cc(C(N)=O)c(Nc4ccccc4)n3)C2)cc1 [Example 38-6, 1-{3-(cyanomethyl)-1-[(4-methylphenyl)carbamoyl]azetidin-3-yl}-3-(phenylamino)-1H-pyrazole-4-carboxamide]
JAK2
  IC50: 69 nM
JAK1
  IC50: 2 nM

## CC(C)c1ccc(NC(=O)N2CC(CC#N)(n3cc(C(N)=O)c(Nc4ccccc4)n3)C2)cc1 [Example 38-7]
JAK2
  IC50: 80 nM
JAK1
  IC50: 5 nM

## CC(C)c1ccccc1NC(=O)N1CC(CC#N)(n2cc(C(N)=O)c(Nc3ccccc3)n2)C1 [Example 38-8, 1-[3-(cyanomethyl)-1-{[2-(1-methylethyl)phenyl]carbamoyl}azetidin-3-yl]-3-(phenylamino)-1H-pyrazole-4-carboxamide]
JAK2
  IC50: 428 nM
JAK1
  IC50: 14 nM

## N#CCC1(n2cc(C(N)=O)c(Nc3ccccc3)n2)CN(C(=O)Nc2cc(F)ccc2F)C1 [Example 38-10, 1-{3-(cyanomethyl)-1-[(2,5-difluorophenyl)carbamoyl]azetidin-3-yl}-3-(phenylamino)-1H-pyrazole-4-carboxamide]
JAK2
  IC50: 158 nM
JAK1
  IC50: 5 nM

## Cc1cccc(NC(=O)N2CC(CC#N)(n3cc(C(N)=O)c(Nc4ccccc4)n3)C2)c1 [Example 38-11, 1-{3-(cyanomethyl)-1-[(3-methylphenyl)carbamoyl]azetidin-3-yl}-3-(phenylamino)-1H-pyrazole-4-carboxamide]
JAK2
  IC50: 78 nM
JAK1
  IC50: 4 nM

## Cc1cc(C)c(NC(=O)N2CC(CC#N)(n3cc(C(N)=O)c(Nc4ccccc4)n3)C2)c(C)c1 [Example 38-12, 1-{3-(cyanomethyl)-1-[(2,4,6-trimethylphenyl)carbamoyl]azetidin-3-yl}-3-(phenylamino)-1H-pyrazole-4-carboxamide]
JAK2
  IC50: 1440 nM
JAK1
  IC50: 128 nM

## Cc1ccc(NC(=O)N2CC(CC#N)(n3cc(C(N)=O)c(Nc4ccccc4)n3)C2)cc1Cl [Example 38-13, 1-{1-[(3-chloro-4-methylphenyl)carbamoyl]-3-(cyanomethyl)azetidin-3-yl}-3-(phenylamino)-1H-pyrazole-4-carboxamide]
JAK2
  IC50: 339 nM
JAK1
  IC50: 21 nM

## Cc1cc(Cl)ccc1NC(=O)N1CC(CC#N)(n2cc(C(N)=O)c(Nc3ccccc3)n2)C1 [Example 38-14, 1-{1-[(4-chloro-2-methylphenyl)carbamoyl]-3-(cyanomethyl)azetidin-3-yl}-3-(phenylamino)-1H-pyrazole-4-carboxamide]
JAK2
  IC50: 334 nM
JAK1
  IC50: 25 nM

## N#CCC1(n2cc(C(N)=O)c(Nc3ccccc3)n2)CN(C(=O)Nc2ccc(C#N)cc2)C1 [Example 38-15, 1-{3-(cyanomethyl)-1-[(4-cyanophenyl)carbamoyl]azetidin-3-yl}-3-(phenylamino)-1H-pyrazole-4-carboxamide]
JAK2
  IC50: 21 nM
JAK1
  IC50: 0.9 nM

## Cc1ccc(C)c(NC(=O)N2CC(CC#N)(n3cc(C(N)=O)c(Nc4ccccc4)n3)C2)c1 [Example 38-16, 1-{3-(cyanomethyl)-1-[(2,5-dimethylphenyl)carbamoyl]azetidin-3-yl}-3-(phenylamino)-1H-pyrazole-4-carboxamide]
JAK2
  IC50: 111 nM
JAK1
  IC50: 7 nM

## Cc1ccc(Cl)cc1NC(=O)N1CC(CC#N)(n2cc(C(N)=O)c(Nc3ccccc3)n2)C1 [Example 38-17, 1-{1-[(5-chloro-2-methylphenyl)carbamoyl]-3-(cyanomethyl)azetidin-3-yl}-3-(phenylamino)-1H-pyrazole-4-carboxamide]
JAK2
  IC50: 149 nM
JAK1
  IC50: 11 nM

## CCCNC(=O)N1CC(CC#N)(n2cc(C(N)=O)c(Nc3ccccc3)n2)C1 [Example 38-18, 1-[3-(cyanomethyl)-1-(propylcarbamoyl)azetidin-3-yl]-3-(phenylamino)-1H-pyrazole-4-carboxamide]
JAK2
  IC50: 106 nM
JAK1
  IC50: 7 nM

## Cc1ccc(NC(=O)N2CC(CC#N)(n3cc(C(N)=O)c(Nc4ccccc4)n3)C2)c(C)c1 [Example 38-19, 1-{3-(cyanomethyl)-1-[(2,4-dimethylphenyl)carbamoyl]azetidin-3-yl}-3-(phenylamino)-1H-pyrazole-4-carboxamide]
JAK2
  IC50: 334 nM
JAK1
  IC50: 23 nM

## Cc1cc(C)cc(NC(=O)N2CC(CC#N)(n3cc(C(N)=O)c(Nc4ccccc4)n3)C2)c1 [Example 38-20, 1-{3-(cyanomethyl)-1-[(3,5-dimethylphenyl)carbamoyl]azetidin-3-yl}-3-(phenylamino)-1H-pyrazole-4-carboxamide]
JAK2
  IC50: 326 nM
JAK1
  IC50: 19 nM

## N#CCC1(n2cc(C(N)=O)c(Nc3ccccc3)n2)CN(C(=O)Nc2ccc(F)c(F)c2)C1 [Example 38-21, 1-{3-(cyanomethyl)-1-[(3,4-difluorophenyl)carbamoyl]azetidin-3-yl}-3-(phenylamino)-1H-pyrazole-4-carboxamide]
JAK2
  IC50: 173 nM
JAK1
  IC50: 7 nM

## Cc1c(Cl)cccc1NC(=O)N1CC(CC#N)(n2cc(C(N)=O)c(Nc3ccccc3)n2)C1 [Example 38-22, 1-{1-[(3-chloro-2-methylphenyl)carbamoyl]-3-(cyanomethyl)azetidin-3-yl}-3-(phenylamino)-1H-pyrazole-4-carboxamide]
JAK2
  IC50: 249 nM
JAK1
  IC50: 19 nM

## CCc1cccc(C)c1NC(=O)N1CC(CC#N)(n2cc(C(N)=O)c(Nc3ccccc3)n2)C1 [Example 38-23, 1-{3-(cyanomethyl)-1-[(2-ethyl-6-methylphenyl)carbamoyl]azetidin-3-yl}-3-(phenylamino)-1H-pyrazole-4-carboxamide]
JAK2
  IC50: 1190 nM
JAK1
  IC50: 94 nM

## Cc1cccc(Cl)c1NC(=O)N1CC(CC#N)(n2cc(C(N)=O)c(Nc3ccccc3)n2)C1 [Example 38-24, 1-{1-[(2-chloro-6-methylphenyl)carbamoyl]-3-(cyanomethyl)azetidin-3-yl}-3-(phenylamino)-1H-pyrazole-4-carboxamide]
JAK2
  IC50: 179 nM
JAK1
  IC50: 5 nM

## COc1ccc(C)cc1NC(=O)N1CC(CC#N)(n2cc(C(N)=O)c(Nc3ccccc3)n2)C1 [Example 38-25, 1-{3-(cyanomethyl)-1-[(2-methoxy-5-methylphenyl)carbamoyl]azetidin-3-yl}-3-(phenylamino)-1H-pyrazole-4-carboxamide]
JAK2
  IC50: 168 nM
JAK1
  IC50: 18 nM

## CCOc1ccc(NC(=O)N2CC(CC#N)(n3cc(C(N)=O)c(Nc4ccccc4)n3)C2)cc1 [Example 38-26, 1-{3-(cyanomethyl)-1-[(4-ethoxyphenyl)carbamoyl]azetidin-3-yl}-3-(phenylamino)-1H-pyrazole-4-carboxamide]
JAK2
  IC50: 69 nM
JAK1
  IC50: 2 nM

## Cc1ccccc1NC(=O)N1CC(CC#N)(n2cc(C(N)=O)c(Nc3ccccc3)n2)C1 [Example 38-27, 1-{3-(cyanomethyl)-1-[(2-methylphenyl)carbamoyl]azetidin-3-yl}-3-(phenylamino)-1H-pyrazole-4-carboxamide]
JAK2
  IC50: 162 nM
JAK1
  IC50: 11 nM

## N#CCC1(n2cc(C(N)=O)c(Nc3ccccc3)n2)CN(C(=O)Nc2ccc(F)cc2F)C1 [Example 38-28, 1-{3-(cyanomethyl)-1-[(2,4-difluorophenyl)carbamoyl]azetidin-3-yl}-3-(phenylamino)-1H-pyrazole-4-carboxamide]
JAK2
  IC50: 79 nM
JAK1
  IC50: 6 nM

## CC(C)(C)CC(C)(C)NC(=O)N1CC(CC#N)(n2cc(C(N)=O)c(Nc3ccccc3)n2)C1 [Example 38-29, 1-{3-(cyanomethyl)-1-[(1,1,3,3-tetramethylbutyl)carbamoyl]azetidin-3-yl}-3-(phenylamino)-1H-pyrazole-4-carboxamide]
JAK2
  IC50: 1480 nM
JAK1
  IC50: 185 nM

## CCOc1ccccc1NC(=O)N1CC(CC#N)(n2cc(C(N)=O)c(Nc3ccccc3)n2)C1 [Example 38-30, 1-{3-(cyanomethyl)-1-[(2-ethoxyphenyl)carbamoyl]azetidin-3-yl}-3-(phenylamino)-1H-pyrazole-4-carboxamide]
JAK2
  IC50: 507 nM
JAK1
  IC50: 62 nM

## Cc1cccc(C)c1NC(=O)N1CC(CC#N)(n2cc(C(N)=O)c(Nc3ccccc3)n2)C1 [Example 38-31, 1-{3-(cyanomethyl)-1-[(2,6-dimethylphenyl)carbamoyl]azetidin-3-yl}-3-(phenylamino)-1H-pyrazole-4-carboxamide]
JAK2
  IC50: 656 nM
JAK1
  IC50: 33 nM

## CC(=O)c1cccc(NC(=O)N2CC(CC#N)(n3cc(C(N)=O)c(Nc4ccccc4)n3)C2)c1 [Example 38-32, 1-{1-[(3-acetylphenyl)carbamoyl]-3-(cyanomethyl)azetidin-3-yl}-3-(phenylamino)-1H-pyrazole-4-carboxamide]
JAK2
  IC50: 86 nM
JAK1
  IC50: 4 nM

## C[C@@H](NC(=O)N1CC(CC#N)(n2cc(C(N)=O)c(Nc3ccccc3)n2)C1)c1ccccc1 [Example 38-33, 1-[3-(cyanomethyl)-1-{[(1R)-1-phenylethyl]carbamoyl}azetidin-3-yl]-3-(phenylamino)-1H-pyrazole-4-carboxamide]
JAK2
  IC50: 265 nM
JAK1
  IC50: 26 nM

## CCc1cccc(NC(=O)N2CC(CC#N)(n3cc(C(N)=O)c(Nc4ccccc4)n3)C2)c1 [Example 38-35, 1-{3-(cyanomethyl)-1-[(3-ethylphenyl)carbamoyl]azetidin-3-yl}-3-(phenylamino)-1H-pyrazole-4-carboxamide]
JAK2
  IC50: 144 nM
JAK1
  IC50: 8 nM

## COc1ccc(NC(=O)N2CC(CC#N)(n3cc(C(N)=O)c(Nc4ccccc4)n3)C2)c(C)c1 [Example 38-36, 1-{3-(cyanomethyl)-1-[(4-methoxy-2-methylphenyl)carbamoyl]azetidin-3-yl}-3-(phenylamino)-1H-pyrazole-4-carboxamide]
JAK2
  IC50: 233 nM
JAK1
  IC50: 15 nM

## Cc1ccc(NC(=O)N2CC(CC#N)(n3cc(C(N)=O)c(Nc4ccccc4)n3)C2)cc1F [Example 38-37, 1-{3-(cyanomethyl)-1-[(3-fluoro-4-methylphenyl)carbamoyl]azetidin-3-yl}-3-(phenylamino)-1H-pyrazole-4-carboxamide]
JAK2
  IC50: 114 nM
JAK1
  IC50: 8 nM

## CCc1ccccc1NC(=O)N1CC(CC#N)(n2cc(C(N)=O)c(Nc3ccccc3)n2)C1 [Example 38-39, 1-{3-(cyanomethyl)-1-[(2-ethylphenyl)carbamoyl]azetidin-3-yl}-3-(phenylamino)-1H-pyrazole-4-carboxamide]
JAK2
  IC50: 303 nM
JAK1
  IC50: 16 nM
